Test: clinical
Method: PK assessments included the following tests. […] The total number of PK samples collected was approximately 115 mL of whole blood (7-8 tablespoons). If a patient experienced a potentially drug-related SAE, additional PK samples were collected. Blood was drawn from the contralateral arm to the infusion site using an indwelling catheter to avoid multiple needle sticks. […] The blood tube was inverted several times and the tube placed in wet ice immediately pending separation of the plasma. If a catheter was used for blood collection, the fluid in the catheter was completely withdrawn prior to each sample collection and discarded. Plasma samples were kept on wet ice during collection and centrifugation. Plasma samples were split into two cryovials prior to freezing at −70° C.

[1] = Cohorts 1 & 2, 17-AAG 100 mg/m^2, Max
[2] = Cohorts 1 & 2, 17-AAG 100 mg/m^2, Mean
[3] = Cohorts 1 & 2, 17-AAG 100 mg/m^2, Median
[4] = Cohorts 1 & 2, 17-AAG 100 mg/m^2, Min
[5] = Cohorts 3 & 4, 17-AAG 150 mg/m^2, Max
[6] = Cohorts 3 & 4, 17-AAG 150 mg/m^2, Mean
[7] = Cohorts 3 & 4, 17-AAG 150 mg/m^2, Median
[8] = Cohorts 3 & 4, 17-AAG 150 mg/m^2, Min

For `C=CCNC1=C2C[C@@H](C)C[C@H](OC)[C@H](O)[C@@H](C)/C=C(\C)[C@H](OC(N)=O)[C@@H](OC)/C=C\C=C(/C)C(=O)NC(=CC1=O)C2=O` [17-AAG, 17-Allylamino-17-demethoxygeldanamycin], the AUCext [1] was 10.80%, the AUCextra [1] was 608.6 ng·h/mL and the AUClast [1] was 7,248.8 ng/mL * h. The AUCtotal [1] was 7,857.4 ng/mL * h, the Cmax [1] was 2,620 ng/mL and the MRT [1] was 6.04 h. The Tmax [1] was 3 h, the t1/2 [1] was 5.16 h and the AUCext [2] was 6%. The AUCtotal [2] was 3,805 ng/mL * h, the Clearance [2] was 28.63 L/h/m^2 and the Vss [2] was 93.88 L/m^2. For the same molecule, the Vz [2] was 104.58 L/m^2, the AUCext [3] was 6.10% and the AUCtotal [3] was 3,513.8 ng/mL * h. It also gave a Clearance [3] of 28.46 L/h/m^2, a Vss [3] of 79.65 L/m^2 and a Vz [3] of 99.17 L/m^2. For the same molecule, the AUCext [4] was 2.54%, the AUCextra [4] was 87.9 ng·h/mL and the AUClast [4] was 2,231.7 ng/mL * h. The AUCtotal [4] was 2,380.5 ng/mL * h, the Cmax [4] was 755 ng/mL and the MRT [4] was 2.37 h. It also gave a Tmax [4] of 0.5 h, a t1/2 [4] of 1.72 h and an AUCext [5] of 10.5%. For the same molecule, the AUCextra [5] was 595 ng·h/mL, the AUClast [5] was 17,650 ng/mL * h and the AUCtotal [5] was 18,246 ng/mL * h. For the same molecule, the Cmax [5] was 9,540 ng/mL, the MRT [5] was 6.0 h and the Tmax [5] was 2.17 h. For the same molecule, the t1/2 [5] was 5.7 h, the AUCext [6] was 5% and the AUCtotal [6] was 6,030 ng/mL * h. For the same molecule, the Clearance [6] was 28.94 L/h/m^2, the Vss [6] was 80.89 L/m^2 and the Vz [6] was 94.79 L/m^2. For the same molecule, the AUCext [7] was 3.8%, the AUCtotal [7] was 5,071 ng/mL * h and the Clearance [7] was 29.6 L/h/m^2. It also gave a Vss [7] of 84.3 L/m^2, a Vz [7] of 93.7 L/m^2 and an AUCext [8] of 0.9%. For the same molecule, the AUCextra [8] was 54 ng·h/mL, the AUClast [8] was 3,152 ng/mL * h and the AUCtotal [8] was 3,294 ng/mL * h. For the same molecule, the Cmax [8] was 1,830 ng/mL, the MRT [8] was 1.5 h and the Tmax [8] was 0.5 h. The t1/2 [8] was 1.6 h, the Total systemic clearance (cohorts 1-4 combined) was 28.83±8.51 L/h/m^2 and the “distributive volume VSS” value (cohorts 1-4 combined) was 85.25±31.60 L/m^2. The “distributive volume VZ” value (cohorts 1-4 combined) was 98.05±36.41 L/m^2, the Clearance (human, in vivo, 100 mg/m2) was 924 mL/min and the Vd (human, in vivo, 100 mg/m2, Vss, Cohorts 1 & 2, 17-AAG 100 mg/m^2, Median) was 159 L. The half-life (human, in vivo, 150 mg/m2) was 132 min, the Vd (human, in vivo, 150 mg/m2, Vss, Cohorts 3 & 4, 17-AAG 150 mg/m^2, Mean) was 143 L and the Vd (human, in vivo, 150 mg/m2, Vz, Cohorts 3 & 4, 17-AAG 150 mg/m^2, Median) was 172 L. For the same molecule, the Vd (human, in vivo, distributive volume VZ, cohorts 1-4 combined) was 175 ± 68.2 L.
